The target of series [1] is 5-hydroxytryptamine receptor 2A (Homo sapiens, UniProt P28223). Description: Binding affinity to human recombinant 5-HT2A assessed as inhibition constant.
The nature of series [2]: Drug uptake in human striatum relative to control. The class given is ADME, tissue-based.
The nature of series [3]: Drug uptake in pig striatum relative to control. It counts as ADME, tissue-based, Sus scrofa. To be noted: in vivo.
In series [4] the target is T1, 5-hydroxytryptamine receptor 6 (Homo sapiens, UniProt P50406). Description: Binding affinity to human recombinant 5-HT6 receptor assessed as inhibition constant.
T1 sequence (P50406 whole entry): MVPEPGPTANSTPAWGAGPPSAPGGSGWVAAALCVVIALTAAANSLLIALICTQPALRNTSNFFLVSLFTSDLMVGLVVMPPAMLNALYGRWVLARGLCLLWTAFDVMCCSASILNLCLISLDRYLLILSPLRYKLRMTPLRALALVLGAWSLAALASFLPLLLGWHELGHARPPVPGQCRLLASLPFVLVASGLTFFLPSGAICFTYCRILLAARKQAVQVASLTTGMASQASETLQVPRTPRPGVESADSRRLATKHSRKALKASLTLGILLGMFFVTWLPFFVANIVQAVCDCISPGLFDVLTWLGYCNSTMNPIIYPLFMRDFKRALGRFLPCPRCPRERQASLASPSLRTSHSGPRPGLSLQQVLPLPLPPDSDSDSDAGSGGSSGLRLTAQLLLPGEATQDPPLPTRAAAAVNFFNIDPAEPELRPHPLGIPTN
Series [5] in a line: Drug uptake in Papio anubis striatum relative to control. The class given is ADME, tissue-based.
Series [6] can be described thus: Drug uptake in Cynomolgus monkey striatum at 4 mCi, iv measured upto 90 mins by PET imaging. The class given is ADME, organism-based, Macaca fascicularis. Particulars: in vivo, 1.5 h.
Series [7] in a line: Drug uptake in cat striatum at 2.5 mCi, iv measured upto 90 mins by PET imaging. The class given is ADME, organism-based, Felis catus. To be noted: in vivo, 1.5 h.
Series [8] addresses T2, 5-hydroxytryptamine receptor 7 (Homo sapiens, UniProt P34969). Briefly: Binding affinity to human 5-HT7 receptor transfected by pcDNA3.1(+) vector in HEK293 cells assessed as inhibition constant by Cheng-Prusoff equation analysis. It counts as cell-based.
In series [9] the target is Sigma intracellular receptor 2 (Homo sapiens, UniProt Q5BJF2). Description: Binding affinity to sigma 2 receptor (unknown origin) assessed as inhibition constant.
Sigma intracellular receptor 2, sequence (Q5BJF2 whole entry): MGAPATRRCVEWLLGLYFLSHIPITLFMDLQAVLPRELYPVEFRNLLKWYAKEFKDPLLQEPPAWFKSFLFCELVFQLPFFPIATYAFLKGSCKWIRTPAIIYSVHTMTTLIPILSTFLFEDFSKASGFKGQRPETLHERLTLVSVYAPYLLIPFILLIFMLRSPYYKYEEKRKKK
In series [10] the target is Sigma non-opioid intracellular receptor 1 (Homo sapiens, UniProt Q99720). Description: Binding affinity to sigma 1 receptor (unknown origin) assessed as inhibition constant.
Sigma non-opioid intracellular receptor 1, sequence (Q99720 whole entry): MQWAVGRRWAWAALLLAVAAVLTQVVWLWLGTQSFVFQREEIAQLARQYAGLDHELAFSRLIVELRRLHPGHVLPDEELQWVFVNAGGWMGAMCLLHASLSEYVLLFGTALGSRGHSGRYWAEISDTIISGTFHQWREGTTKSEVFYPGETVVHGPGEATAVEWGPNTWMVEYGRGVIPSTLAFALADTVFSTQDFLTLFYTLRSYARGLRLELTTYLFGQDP
Series [11] concerns the target T2, 5-hydroxytryptamine receptor 7. Briefly: Binding affinity to 5-HT7 receptor (unknown origin) assessed as inhibition constant.
The target in series [12] is T3, 5-hydroxytryptamine receptor 1A (Homo sapiens, UniProt P08908).
T3 sequence (P08908 whole entry): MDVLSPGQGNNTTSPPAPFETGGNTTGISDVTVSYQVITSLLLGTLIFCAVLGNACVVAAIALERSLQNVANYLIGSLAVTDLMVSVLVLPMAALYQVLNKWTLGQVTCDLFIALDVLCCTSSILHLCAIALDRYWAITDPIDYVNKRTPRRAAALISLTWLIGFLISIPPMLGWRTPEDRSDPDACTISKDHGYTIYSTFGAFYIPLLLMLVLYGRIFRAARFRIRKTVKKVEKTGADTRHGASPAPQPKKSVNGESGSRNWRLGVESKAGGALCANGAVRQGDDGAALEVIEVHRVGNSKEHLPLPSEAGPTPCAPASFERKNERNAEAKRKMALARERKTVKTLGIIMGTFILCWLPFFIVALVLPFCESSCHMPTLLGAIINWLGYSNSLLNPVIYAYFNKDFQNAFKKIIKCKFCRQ

The target of series [13] is T4, 5-hydroxytryptamine receptor 1F (Homo sapiens, UniProt P30939). Description: Binding affinity to human 5-HT1F assessed as inhibition constant incubated for 10 mins by radioligand binding assay.
T4 sequence (P30939 whole entry): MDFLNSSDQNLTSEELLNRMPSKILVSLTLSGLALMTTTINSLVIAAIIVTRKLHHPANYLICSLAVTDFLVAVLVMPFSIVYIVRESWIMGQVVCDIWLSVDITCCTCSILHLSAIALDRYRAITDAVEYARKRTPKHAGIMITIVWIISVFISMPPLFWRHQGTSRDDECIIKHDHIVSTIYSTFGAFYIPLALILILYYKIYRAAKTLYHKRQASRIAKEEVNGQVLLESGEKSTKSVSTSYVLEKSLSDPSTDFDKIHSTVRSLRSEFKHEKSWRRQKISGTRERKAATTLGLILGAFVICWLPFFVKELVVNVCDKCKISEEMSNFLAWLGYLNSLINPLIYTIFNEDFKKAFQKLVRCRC
Series [14] deals with 5-hydroxytryptamine receptor 1B (Homo sapiens, UniProt P28222).
5-hydroxytryptamine receptor 1B, sequence (P28222 whole entry): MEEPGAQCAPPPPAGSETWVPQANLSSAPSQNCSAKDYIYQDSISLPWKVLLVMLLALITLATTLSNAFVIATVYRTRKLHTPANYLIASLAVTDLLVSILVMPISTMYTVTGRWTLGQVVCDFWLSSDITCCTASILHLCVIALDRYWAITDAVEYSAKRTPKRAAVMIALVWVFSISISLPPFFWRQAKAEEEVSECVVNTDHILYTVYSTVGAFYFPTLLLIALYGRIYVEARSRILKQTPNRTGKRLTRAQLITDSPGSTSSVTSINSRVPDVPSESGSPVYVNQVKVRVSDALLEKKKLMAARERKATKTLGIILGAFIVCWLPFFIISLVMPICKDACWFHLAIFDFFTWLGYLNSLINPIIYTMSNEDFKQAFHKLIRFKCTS
The target in series [15] is T5, 5-hydroxytryptamine receptor 2C (Homo sapiens, UniProt P28335).
T5 sequence (P28335 whole entry): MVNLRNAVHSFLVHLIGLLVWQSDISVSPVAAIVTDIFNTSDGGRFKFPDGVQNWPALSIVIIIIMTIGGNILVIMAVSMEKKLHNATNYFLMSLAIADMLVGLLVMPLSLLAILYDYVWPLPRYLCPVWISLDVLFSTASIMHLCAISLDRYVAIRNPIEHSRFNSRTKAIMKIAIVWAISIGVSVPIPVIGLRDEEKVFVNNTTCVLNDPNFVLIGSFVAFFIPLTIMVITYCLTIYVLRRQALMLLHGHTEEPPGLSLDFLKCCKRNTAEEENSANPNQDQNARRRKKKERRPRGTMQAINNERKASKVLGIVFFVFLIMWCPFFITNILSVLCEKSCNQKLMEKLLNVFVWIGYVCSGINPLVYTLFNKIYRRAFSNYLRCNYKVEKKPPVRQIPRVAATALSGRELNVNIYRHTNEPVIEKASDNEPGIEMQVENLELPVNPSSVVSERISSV

The target of series [16] is T2, 5-hydroxytryptamine receptor 7.
Series [17] concerns the target 5-hydroxytryptamine receptor 2B (Homo sapiens, UniProt P41595).
Series [18] deals with 5-hydroxytryptamine receptor 5A (Homo sapiens, UniProt P47898). Briefly: Binding affinity to 5-HT5A receptor (unknown origin) assessed as inhibition constant.
5-hydroxytryptamine receptor 5A, sequence (P47898 whole entry): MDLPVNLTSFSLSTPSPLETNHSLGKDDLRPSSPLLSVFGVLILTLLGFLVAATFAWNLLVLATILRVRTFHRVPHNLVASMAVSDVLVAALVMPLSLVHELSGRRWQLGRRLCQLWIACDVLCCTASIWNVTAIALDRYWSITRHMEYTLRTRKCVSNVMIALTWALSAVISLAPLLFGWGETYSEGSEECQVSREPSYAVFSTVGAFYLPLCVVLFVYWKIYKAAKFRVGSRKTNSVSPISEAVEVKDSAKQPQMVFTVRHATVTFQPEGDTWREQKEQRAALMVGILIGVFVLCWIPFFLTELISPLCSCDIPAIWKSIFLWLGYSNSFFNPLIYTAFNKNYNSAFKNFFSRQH
Series [19] has as its target T6, 5-hydroxytryptamine receptor 1D (Homo sapiens, UniProt P28221). Briefly: Binding affinity to 5-HT1D (unknown origin) assessed as inhibition constant.
The target in series [20] is T4, 5-hydroxytryptamine receptor 1F. Briefly: Binding affinity to human 5-HT1F assessed as inhibition constant.
Series [21] addresses 5-hydroxytryptamine receptor 7 (Rattus norvegicus, UniProt P32305). Briefly: Binding affinity to rat brain 5-HT7 receptor assessed as inhibition constant incubated for 60 mins. It counts as tissue-based.
Series [22] addresses T1, 5-hydroxytryptamine receptor 6. Description: Binding affinity to 5-HT6 receptor (unknown origin) assessed as inhibition constant.
Series [23] deals with T6, 5-hydroxytryptamine receptor 1D. Briefly: Binding affinity to human 5-HT1D expressed in CHO cells assessed as inhibition constant incubated for 1 hr by Cheng-Prusoff equation analysis. The class given is cell-based.

5-hydroxytryptamine receptor 2B, sequence (P41595 whole entry): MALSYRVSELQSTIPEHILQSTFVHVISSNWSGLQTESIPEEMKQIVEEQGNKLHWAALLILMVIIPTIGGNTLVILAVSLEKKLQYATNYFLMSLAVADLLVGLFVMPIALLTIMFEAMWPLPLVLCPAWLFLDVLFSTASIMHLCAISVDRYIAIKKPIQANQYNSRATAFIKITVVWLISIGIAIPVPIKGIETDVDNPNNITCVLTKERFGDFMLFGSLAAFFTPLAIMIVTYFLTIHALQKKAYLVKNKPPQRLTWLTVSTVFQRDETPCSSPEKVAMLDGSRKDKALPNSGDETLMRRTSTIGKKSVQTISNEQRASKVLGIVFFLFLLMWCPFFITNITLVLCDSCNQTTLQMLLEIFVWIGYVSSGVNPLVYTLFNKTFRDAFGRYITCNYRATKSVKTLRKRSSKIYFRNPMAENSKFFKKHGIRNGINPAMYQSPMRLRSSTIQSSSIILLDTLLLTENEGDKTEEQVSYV
T6 sequence (P28221 whole entry): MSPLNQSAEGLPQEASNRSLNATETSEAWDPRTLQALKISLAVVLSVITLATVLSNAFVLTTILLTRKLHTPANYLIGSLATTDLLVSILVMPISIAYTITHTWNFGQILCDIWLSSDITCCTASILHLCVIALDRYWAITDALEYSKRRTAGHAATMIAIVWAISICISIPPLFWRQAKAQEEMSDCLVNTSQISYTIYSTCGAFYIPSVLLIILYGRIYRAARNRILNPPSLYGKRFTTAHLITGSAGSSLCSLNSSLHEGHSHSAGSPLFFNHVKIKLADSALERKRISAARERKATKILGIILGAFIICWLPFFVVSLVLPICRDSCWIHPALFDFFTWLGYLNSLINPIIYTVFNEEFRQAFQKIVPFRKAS
T2 sequence (P34969 whole entry): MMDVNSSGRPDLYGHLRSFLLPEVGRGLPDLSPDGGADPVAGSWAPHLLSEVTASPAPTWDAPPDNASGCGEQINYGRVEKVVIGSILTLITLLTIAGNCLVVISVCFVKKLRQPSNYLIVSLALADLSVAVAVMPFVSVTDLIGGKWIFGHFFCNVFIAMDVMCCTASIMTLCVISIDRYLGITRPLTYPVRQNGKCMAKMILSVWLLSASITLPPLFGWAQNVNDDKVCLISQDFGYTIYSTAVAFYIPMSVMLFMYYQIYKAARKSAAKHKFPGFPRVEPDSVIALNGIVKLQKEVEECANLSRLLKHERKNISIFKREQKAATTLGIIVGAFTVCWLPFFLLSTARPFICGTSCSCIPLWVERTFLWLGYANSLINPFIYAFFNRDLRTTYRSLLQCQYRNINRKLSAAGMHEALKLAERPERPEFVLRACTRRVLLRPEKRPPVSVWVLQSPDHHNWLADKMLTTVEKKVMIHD
5-hydroxytryptamine receptor 7 (Rattus norvegicus, UniProt P32305), sequence (P32305 whole entry): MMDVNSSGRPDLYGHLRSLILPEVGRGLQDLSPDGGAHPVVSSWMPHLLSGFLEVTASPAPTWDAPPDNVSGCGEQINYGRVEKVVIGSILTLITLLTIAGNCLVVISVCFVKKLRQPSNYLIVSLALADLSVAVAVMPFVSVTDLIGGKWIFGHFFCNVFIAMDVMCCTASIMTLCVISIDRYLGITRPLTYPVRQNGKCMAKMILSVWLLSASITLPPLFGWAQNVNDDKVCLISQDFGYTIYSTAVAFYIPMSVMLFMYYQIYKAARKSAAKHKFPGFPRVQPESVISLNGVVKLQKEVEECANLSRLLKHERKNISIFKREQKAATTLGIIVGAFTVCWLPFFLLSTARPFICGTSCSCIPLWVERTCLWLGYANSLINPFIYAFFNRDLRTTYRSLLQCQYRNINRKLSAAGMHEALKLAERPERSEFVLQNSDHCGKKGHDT
5-hydroxytryptamine receptor 2A, sequence (P28223 whole entry): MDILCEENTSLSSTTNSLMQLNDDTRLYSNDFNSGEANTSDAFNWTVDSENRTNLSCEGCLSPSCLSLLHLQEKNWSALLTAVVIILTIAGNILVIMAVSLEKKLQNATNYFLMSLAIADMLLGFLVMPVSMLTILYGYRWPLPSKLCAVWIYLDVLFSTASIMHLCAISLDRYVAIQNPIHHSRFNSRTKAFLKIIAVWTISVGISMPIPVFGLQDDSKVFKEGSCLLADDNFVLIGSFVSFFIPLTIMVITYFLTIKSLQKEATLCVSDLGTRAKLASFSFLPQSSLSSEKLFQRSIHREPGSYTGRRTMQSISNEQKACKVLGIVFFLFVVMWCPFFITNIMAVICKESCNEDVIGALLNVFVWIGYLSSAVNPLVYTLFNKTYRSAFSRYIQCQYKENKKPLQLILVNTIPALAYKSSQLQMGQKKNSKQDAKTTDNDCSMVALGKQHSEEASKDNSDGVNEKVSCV

For `[11CH3]N1CCN(c2cccc3cc(S(=O)(=O)c4cccc(F)c4)cnc23)CC1`, the Ki in [1] was 0.00016 µM; in [4] it was 0.00079 µM. Further, the Drug uptake in series [2] is reported as 11.5 %Idose/L; in series [3], 3.5 %Idose/L; in series [5], 10.5 %Idose/L.
Turning to `CC(c1cnc2c(N3CCN(C)CC3)cccc2c1)S(=O)(=O)c1ccccc1[18F]` (stereo not given), the SUVmax in series [6] amounted to 2.5; in series [7] it was 4.5.
Turning to `COc1ccc(-c2c([N+](=O)[O-])ccn2C)cc1`, in [8], the Ki was 0.0168 µM.
On to `COc1cccc(S(=O)(=O)N2CCC[C@@H]2CCN2CCC(C)CC2)c1`, for which the Ki in series [9] worked out at 0.0016 µM; in series [10] it was 0.0092 µM; in series [11] it was 0.018 µM.
For `CN1CCC(C(=O)c2cccc(NC(=O)c3c(F)cc(F)cc3F)n2)CC1`, the Ki in series [12] is greater than 0.59 µM; in series [13] it was 0.00221 µM; in [14], greater than 0.591 µM; in [15], greater than 0.594 µM; in [16] it was greater than 0.59 µM; in series [17], greater than 0.593 µM. The Ki in series [18] is greater than 0.595 µM; in series [19], greater than 0.592 µM.
Take `CN(C)[C@@H]1CCc2[nH]c3ccc(NC(=O)c4ccc(F)cc4)cc3c2C1`: the Ki is greater than 0.5 µM in [12]; greater than 0.5 µM in [15]; 0.006 µM in series [20]; greater than 0.5 µM in series [16]; greater than 0.5 µM in series [17]; greater than 0.5 µM in series [18]. The Ki in series [19] is greater than 0.5 µM.
`CC1CCN(CC[C@H]2CCCN2S(=O)(=O)c2cccc(OCC[18F])c2)CC1`: the inhibition constant Ki in series [21] worked out at 0.00075 µM.
On to `CN(C)CCOc1cccc2c1ccn2S(=O)(=O)c1ccc([18F])cc1`, for which, in series [22], the Ki was found to be 0.004 µM.
For the compound `CNC(=O)c1ccc2c(c1)CCO[C@H]2CCN1CCN(c2ccc(C(N)=O)cc2)CC1`, the Ki in series [17] is greater than 18 µM; in [23], 0.006 µM.

These data come from ChEMBL document CHEMBL5108009, “Positron Emission Tomography (PET) Imaging Tracers for Serotonin Receptors” (J Med Chem, 2022).
